Measurements published in paper PMC3130094 (Pharmacological research : the official journal of the …, 2011).
“And” between values parts separate entries of the source, which are not always exact repeats. Identical values can stand only once. “Also recorded” adds a separate entry of the source. Like-named read-outs stand apart in the source and are kept apart here. Non-standard residues stand in square brackets, D forms with d. Residues, ends and D or L forms follow the SMILES beside them. No end group written: not given here.

Columns and labels:
[1] = tested on: HEK 293T cells; assay: Ratiometric Fura-2 calcium imaging, HEK 293T cells; format: cell-based, human; conditions: for Effect on ET-1 (30 nM) calcium transient: MDL-12,330A 50 µM, five minutes before ET-1, HEK 293T cells
[2] = tested on: ND7/104 cells; assay: Ratiometric Fura-2 calcium imaging, ND7/104 cells; format: cell-based, rat/mouse hybrid; conditions: for Effect on ET-1 (30 nM) calcium transient: MDL-12,330A 50 µM, five minutes before ET-1, ND7/104 cells
[3] = tested on: ET receptors (ETA/ETB) on intact ND7/104 cells; assay: Competition binding against 30 pM [125I]-ET-1, intact ND7/104 cells; parameters: species or system rat/mouse hybrid; conditions: 100 nM BQ-123, ND7/104 cells
[4] = tested on: ET receptors (ETA/ETB) on intact HEK 293 cells; conditions: for Ki: HEK 293 cells
[5] = tested on: ET receptors (ETA/ETB) on intact HEK 293T cells
[6] = molecular target: T1, ET receptors (ETA/ETB) on intact HEK 293T cells (Homo sapiens, UniProt P25101); conditions: read-out: High affinity KI BQ-123; HEK 293T cells, high affinity site (assumed ETA)
T1 sequence (P25101 21-427): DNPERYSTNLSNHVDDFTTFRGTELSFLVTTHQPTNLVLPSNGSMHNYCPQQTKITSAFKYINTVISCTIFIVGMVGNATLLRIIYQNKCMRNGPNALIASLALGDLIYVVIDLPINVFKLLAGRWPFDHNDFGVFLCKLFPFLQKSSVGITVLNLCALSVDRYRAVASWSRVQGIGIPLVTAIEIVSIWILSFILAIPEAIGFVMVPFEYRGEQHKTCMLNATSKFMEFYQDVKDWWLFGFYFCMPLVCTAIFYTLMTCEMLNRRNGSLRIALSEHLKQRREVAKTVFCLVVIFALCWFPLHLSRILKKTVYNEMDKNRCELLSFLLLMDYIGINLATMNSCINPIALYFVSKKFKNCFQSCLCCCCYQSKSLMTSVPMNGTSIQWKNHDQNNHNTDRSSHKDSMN

[7] = tested on: HEK 293 cells; assay: Ratiometric Fura-2 calcium imaging, HEK 293 cells; format: cell-based, human
[8] = tested on: HEK 293T cells; assay: Intracellular cAMP enzyme immunoassay, HEK 293T cells; format: cell-based, human; conditions: ET-1 0.3 nM to 300 nM, 10 min 37 °C
[9] = tested on: ND7/104 cells; assay: Intracellular cAMP enzyme immunoassay, ND7/104 cells; format: cell-based, rat/mouse hybrid; conditions: ET-1 0.3 nM to 300 nM, 10 min 37 °C
[10] = molecular target: cloned tagged-ETB receptors; conditions: HEK 293 membranes ref [33]; cited from earlier work
[11] = tested on: ET receptors on intact ND7/104 cells; assay: [125I]-ET-1 saturation binding to intact ND7/104 cells; parameters: species or system rat/mouse hybrid; conditions: read-out: KD (I-ET-1), 4 °C
[12] = molecular target: cloned tagged-ETA receptors; conditions: HEK 293 membranes ref [33]; cited from earlier work
[13] = molecular target: ET receptors in pituitary tissue sections; conditions: pituitary tissue sections ref [32]; cited from earlier work

## CCCC[C@@H](NC(=O)[C@@H](Cc1cn(C(=O)OC)c2ccccc12)NC(=O)[C@H](CC(C)(C)C)NC(=O)N1[C@H](C)CCC[C@@H]1C)C(=O)O [BQ-788]
[1]; BQ-788 100 nM (Figure 6B: 100 and 200 nM), HEK 293T cells
  Effect on ET-1 (30 nM) stimulated calcium increase: without effect; also recorded: not affected
[2]; BQ-788 100 nM (Figure 6B: 100 and 200 nM), ND7/104 cells
  Effect on ET-1 (30 nM) stimulated calcium increase: without effect; also recorded: not affected

## COc1ccc2c(c1)CC[C@@H]1[C@@H]2CC[C@]2(C)[C@@H](NCCCCCCN3C(=O)C=CC3=O)CC[C@@H]12 [U73122]
[1]; U73122 10 µM, 30 min pretreatment, normalized to ionomycin, HEK 293T cells
  Effect on ET-1 (30 nM) induced calcium transient: complete inhibition
[1]; U73122 10 µM, HEK 293T cells
  Effect on calcium response to ATP: abrogated
[2]; U73122 10 µM, 30 min pretreatment, normalized to ionomycin, ND7/104 cells
  Effect on ET-1 (30 nM) induced calcium transient: complete inhibition
[2]; U73122 10 µM, ND7/104 cells
  Effect on calcium response to ATP: abrogated
[2]; U73122, ND7/104 cells, data not shown
  Effect on response elicited by bradykinin: does not inhibit

## CC(C)C[C@@H]1NC(=O)[C@@H](C(C)C)NC(=O)[C@@H]2CCCN2C(=O)[C@@H](CC(=O)O)NC(=O)[C@@H](Cc2c[nH]c3ccccc23)NC1=O [BQ-123] (cyclo(L[dW][dD]P[dV]); ring closure inferred)
[3]
  ETA binding defined by BQ-123, share of specific [125I]-ET-1 binding: 75.2 ± 22.2% and 75 ± 22%
[1]; BQ-123 50 nM, HEK 293T cells
  Effect on ET-1 (30 nM) stimulated calcium increase: blocked; also recorded: completely prevented
[4]; 100 nM BQ-123, HEK 293 cells
  ETA binding defined by BQ-123, share of specific [125I]-ET-1 binding: 85.3 ± 19% and 85 ± 19%
[4]; read-out: KI (BQ-123), 30 pM [125I]-ET-1
  Ki: 0.39 ± 0.14 nM
[4]; read-out: Low affinity KI BQ-123, low affinity site
  Ki: 195 ± 136 nM
[5]; 100 nM BQ-123, HEK 293T cells
  ETA binding defined by BQ-123, share of specific [125I]-ET-1 binding: 75 ± 9%
[5]; HEK 293T cells, low affinity site
  Low affinity Ki BQ-123: too high to allow its estimation
[5]; read-out: KI (BQ-123), HEK 293T cells, 30 pM [125I]-ET-1
  Ki: 0.21 ± 0.01 nM
[6]
  Ki: 5.47 ± 1.52 nM
[2]; BQ-123 50 nM, ND7/104 cells
  Effect on ET-1 (30 nM) stimulated calcium increase: blocked; also recorded: completely prevented

## Nc1ncnc2c1ncn2[C@@H]1O[C@H](COP(=O)(O)OP(=O)(O)OP(=O)(O)O)[C@@H](O)[C@H]1O [ATP]
[1]; ATP 40 µM, HEK 293T cells
  Calcium response to ATP: induced a strong and comparable calcium response
[7]; ATP 40 µM
  Calcium response to ATP: induced a strong and comparable calcium response
[2]; ATP 40 µM, ND7/104 cells
  Calcium response to ATP: induced a strong and comparable calcium response

## Endothelin-1 (CSCSSLMDKECVYFCHLDIIW; ends and bridges not checked; cysteine pairing not given here; UniProt P05305 53-73, looked up) [ET-1]
[8]
  Intracellular cAMP accumulation: did not record a rise of intracellular cAMP; also recorded: None of the ET-1 concentrations tested produced a significant effect
[1]; ET-1 30 nM and 100 nM, HEK 293T cells
  Share of cells showing [Ca2+]in mobilization: ~ 35%
[1]; ET-1 30 or 100 nM, HEK 293T cells
  [Ca2+]in response to ET-1 (normalized to ATP 40 µM): caused an increase in [Ca]in
[1]; calcium-free Ringer, HEK 293T cells
  [Ca2+]in response to ET-1 in the absence of extracellular calcium: not diminished; also recorded: did not affect the response
[9]
  Intracellular cAMP accumulation: did not record a rise of intracellular cAMP; also recorded: None of the ET-1 concentrations tested produced a significant effect
[7]; ET-1 30 or 100 nM
  [Ca2+]in response to ET-1 (normalized to ATP 40 µM): neither of these concentrations of ET-1 produced a detectable increase of [Ca^2+]in; also recorded: does not promote intracellular calcium mobilization; also recorded: this effect was not observed
[2]; ET-1 30 nM and 100 nM, ND7/104 cells
  Share of cells showing [Ca2+]in mobilization: ~ 35%
[2]; ET-1 30 or 100 nM, ND7/104 cells
  [Ca2+]in response to ET-1 (normalized to ATP 40 µM): caused an increase in [Ca]in
[2]; calcium-free Ringer, ND7/104 cells
  [Ca2+]in response to ET-1 in the absence of extracellular calcium: not diminished; also recorded: did not affect the response

## Cl.c1ccc(C2CCCC2NC2=NCCCCCCCCCCC2)cc1 (stereo not drawn) [MDL-12,330A]
[1]; HEK 293T cells, MDL 12,330A 50 µM, data not shown
  Basal [Ca2+]in on application of antagonist/inhibitor alone: did not produce a significant effect; also recorded: did not elicit a significant rise of [Ca^2+]in
[1]
  Effect on ET-1 (30 nM) calcium transient: same outcome
[1]; listed as MDL 12,330A
  Effect on ET-1 (30 nM) calcium transient: did not affect negatively
[2]; MDL 12,330A 50 µM preincubation, ND7/104 cells
  Effect on calcium response to ATP: markedly diminished response to ATP
[2]
  Effect on ET-1 (30 nM) calcium transient: same outcome
[2]; listed as MDL 12,330A
  Effect on ET-1 (30 nM) calcium transient: did not affect negatively
[2]; ND7/104 cells, MDL 12,330A 50 µM, data not shown
  Basal [Ca2+]in on application of antagonist/inhibitor alone: did not produce a significant effect; also recorded: did not elicit a significant rise of [Ca^2+]in

## Cc1cc(C)cc(C(=O)N(C)[C@H](Cc2ccc(-c3ccccc3)cc2)C(=O)N[C@@H](Cc2c[nH]c3ccccc23)C(=O)O)c1 [IRL-2500]
[1]; IRL-2500 50 nM, HEK 293T cells
  Effect on ET-1 (30 nM) stimulated calcium increase: without effect; also recorded: not affected
[2]; IRL-2500 50 nM, ND7/104 cells
  Effect on ET-1 (30 nM) stimulated calcium increase: without effect; also recorded: not affected

## [^125I]-ET-1: radio-iodinated endothelin-1 used as radioligand
[10]
  Kd: ~0.01 nM
[11]
  Kd: 0.07 ± 0.01 nM
[12]
  Kd: ~0.03 nM
[13]
  Kd: 0.071 nM
